We go through 7 compounds from patent publication US10610498B2, “Oral veterinary composition with gabapentin” (priority 2015, dated 2020).

In series [1] the test system is dogs diagnosed with idiopathic epilepsy. Kind of series: Efficacy of gabapentin vs phenobarbital against idiopathic epilepsy in dogs (seizure episodes, adverse effects). The conditions noted are these: for Seizure number per month prior to the study: baseline; for Seizure number per month prior to the study / Clinical adverse effects observed / Seizure number per month after the study / Changes in the type of seizure: individual dogs; for Seizure number per month after the study: monitored 3 months. In kind it is in vivo. The method, then:
a) G0-E Group: treated with phenobarbital at dose of 2 mg/Kg of body weight, every 12 hours.
b) G1-E Study Group: treated with gabapentin of 10 mg/Kg of body weight, divided 3 times a day by oral administration.
c) G2-E Study Group: treated with gabapentin of 20 mg/Kg of body weight, divided 3 times a day by oral administration.
Patients were monitored for 3 consecutive months, quantifying seizure episodes for each of the patients, obtaining the following: […]

For series [2], the system named is calf dehorning. The conditions noted are these: gabapentin 15 mg/Kg oral, alone or with meloxicam; cited from earlier work.
For series [3], the system named is dogs with moderate to severe osteoarthritis. Nature of the series: Pain caused by osteoarthritis in dogs, Liverpool Osteoarthritis in Dogs questionnaire. Type of series: in vivo. Also noted: scale not given here. The following applies: Medians±EE. The protocol: (§1) In addition to the tests performed for the treatment of epilepsy, the effect of gabapentin in the pain treatment in dogs caused by osteoarthritis was evaluated, 30 animals of race, age, weight and variable sex were used, with 3/5 of body condition and clinical and radiological signs from moderate to severe of osteoarthritis, according to the Bioarth scale. Two study groups were formed:
(§2) a) G0-D Group: treated with fluoxetine at dose of 1 mg/Kg of body weight, every 12 hours, orally.
(§3) b) G1-D Group: treated with gabapentin of 1.5-10 mg/Kg of body weight, every 12 hours, orally.
(§4) The dogs were monitored 8 consecutive weeks by applying the questionnaires of the Subjective Clinical Evaluation System, Liverpool Osteoarthritis in Dogs and the Helsinki Chronic Pain Index to the owners of the dogs, before and after administration of the treatments.
The results of the global observations made by the owners with the Liverpool Osteoarthritis in Dogs questionnaire expressed in Medians±EE are presented in Table 3. The Wilcoxon ranks test was performed using the SPSS Statistics program considering statistically significant values for a level of p<0.05.

The subject of series [4] is neuropathic pain. The conditions noted are these: individually, maximum effect at 60 minutes post-treatment, cited from earlier work.
Series [5] relates to dogs with moderate to severe osteoarthritis. Nature of the series: Pain caused by osteoarthritis in dogs, Helsinki Chronic Pain Index questionnaire. The conditions noted are these: Medians±EE. Type of series: in vivo. The protocol:
as §1, §2, §3, §4
The results of the global observations made by the owners with the Helsinki Chronic Pain Index questionnaire expressed in Medians±EE are presented in Table 3. The Wilcoxon ranks test was performed using the SPSS Statistics program considering statistically significant values for a level of p<0.05.

For series [6] the following is noted: horses, cited from earlier work.
Series [7] deals with dogs with moderate to severe osteoarthritis. Nature of the series: Pain caused by osteoarthritis in dogs, Subjective Clinical Evaluation System. Type of series: in vivo. The conditions noted are these: for Subjective Clinical Evaluation System, global observations: Medians±EE; for Result for the pain treatment (different pain assessment questionnaires): dogs with osteoarthritis, oral, every 12 hours, 8 weeks. The protocol:
as §1, §2, §3, §4
The Subjective Clinical Evaluation System includes the following evaluation points:
3) Mobility of the affected joint: (0) No limitation of movement and no crepitus is palpable, (1) slight decrease in range of motion (10-20%), no crepitus is palpable, (2) slight decrease in range of motion (10-20%) with palpable crepitation, (3) moderate decrease in range of motion (20-50%) and (4) severe decrease in range of motion (>50%) with palpable crepitus.
4) Hold the contralateral limb high: (0) quickly accept to raise the contralateral limb, (1) offer resistance to the contralateral limb elevation, but maintain its weight on the affected limb for more than one minute, (2) offer moderate resistance to the elevation of the contralateral limb and replaces it after 30 seconds, (3) it offers resistance to the elevation of the contralateral limb and replaces it after 10 seconds and (4) refuses to elevate the contralateral limb.
Statistically significant values were considered for a level of p<0.05.

For series [8] the following is noted: reported in dogs; cited from earlier work.
For series [9] the following is noted: horses; 5 mg/Kg oral; cited from earlier work.
Series [10] concerns horses. The conditions noted are these: 2 g/12 h/IV for 8 days; cited from earlier work.
For series [11], the system named is dogs. The following applies: cited from earlier work.
For series [12], the system named is cats. The conditions noted are these: cited from earlier work.
Series [13] has as its system dogs. The following applies: cited from earlier work. The source holds these as a separate data set.
In series [14] the test system is plasma proteins. The following applies: cited from earlier work.
Series [15] relates to cats. The following applies: for 10 and 12 days; cited from earlier work.
[16] abbreviates: G0-E, phenobarbital 2 mg/Kg every 12 hours.
Where [17] appears, read: G1-D, gabapentin 1.5-10 mg/Kg every 12 hours orally, WEEK 0.
[18] abbreviates: G1-D, gabapentin 1.5-10 mg/Kg every 12 hours orally, WEEK 1.
The mark [19] stands for this setting: G1-D, gabapentin 1.5-10 mg/Kg every 12 hours orally, WEEK 2.
[20] abbreviates: G1-D, gabapentin 1.5-10 mg/Kg every 12 hours orally, WEEK 3.
The mark [21] stands for this setting: G1-D, gabapentin 1.5-10 mg/Kg every 12 hours orally, WEEK 4.
Where [22] appears, read: G1-D, gabapentin 1.5-10 mg/Kg every 12 hours orally, WEEK 5.
[23] abbreviates: G1-D, gabapentin 1.5-10 mg/Kg every 12 hours orally, WEEK 6.
The mark [24] stands for this setting: G1-D, gabapentin 1.5-10 mg/Kg every 12 hours orally, WEEK 7.
Where [25] appears, read: G1-D, gabapentin 1.5-10 mg/Kg every 12 hours orally, WEEK 8.
[26] abbreviates: G1-E, gabapentin 10 mg/Kg divided 3 times a day, oral.
Setting [27] is: G2-E, gabapentin 20 mg/Kg divided 3 times a day, oral.
The mark [28] stands for this setting: G0-D, fluoxetine 1 mg/Kg every 12 hours orally, WEEK 0.
[29] abbreviates: G0-D, fluoxetine 1 mg/Kg every 12 hours orally, WEEK 1.
Where [30] appears, read: G0-D, fluoxetine 1 mg/Kg every 12 hours orally, WEEK 2.
The mark [31] stands for this setting: G0-D, fluoxetine 1 mg/Kg every 12 hours orally, WEEK 3.
[32] abbreviates: G0-D, fluoxetine 1 mg/Kg every 12 hours orally, WEEK 4.
Where [33] appears, read: G0-D, fluoxetine 1 mg/Kg every 12 hours orally, WEEK 5.
[34] abbreviates: G0-D, fluoxetine 1 mg/Kg every 12 hours orally, WEEK 6.
The mark [35] stands for this setting: G0-D, fluoxetine 1 mg/Kg every 12 hours orally, WEEK 7.
Where [36] appears, read: G0-D, fluoxetine 1 mg/Kg every 12 hours orally, WEEK 8.

Values joined by “and” are separate entries in the source; they are usually repeats but may differ in a detail not shown here. Identical values can stand only once. Like-named read-outs stand apart in the source and are kept apart here. Some results are limits rather than exact numbers.

In the case of `CCC1(c2ccccc2)C(=O)NC(=O)NC1=O` [Phenobarbital, phenobarbital], in [1] (setting [16]), the “Seizure number per month prior to the study” value is 3 and 11 and 13 and 2 (3×) and 8 and 7 and 10 and 1; the “Clinical adverse effects observed” value is “NONE (6×) and HYPER- and LIGHT SEDATION (3×)”; the “Seizure number per month after the study” value was 0 (5×) and 4 and 1 (4×).
In general, half-life refers to how long it takes for the measured level to halve. In the case of `NCC1(CC(=O)O)CCCCC1` [Gabapentin], the “average daily gain compared to the control” value in [2] is reported as “significantly decreases”. The “concentration of substance P compared to the control” value in [2] is listed as “significantly decreases”. For the same compound, the “Liverpool Osteoarthritis in Dogs questionnaire” value (shortened to “Liverpool Osteoarthritis”) worked out at 27 ± 2.85 in series [3] (setting [17]); 24 ± 2.26 in series [3] (setting [18]); 22 ± 2.35 in series [3] (setting [19]); 23 ± 3.15 in series [3] (setting [20]); 22 ± 3.56 in [3] (setting [21]); 26 ± 3.15 in series [3] (setting [22]). Further, the figures for the “Liverpool Osteoarthritis” value in series [3] (setting [23]), in series [3] (setting [24]) and in series [3] (setting [25]) were 26 ± 2.86, 23 ± 2.67 and 20 ± 2.35, respectively. Further, the antihyperalgesic effect in series [4] (gabapentin 17.8 mg/Kg subcutaneously) is listed as 55%. Besides, the “Helsinki Chronic Pain Index questionnaire” value in [5] (setting [17]) is listed as 22 ± 1.75; in series [5] (setting [18]), 15 ± 3.23; in series [5] (setting [19]), 20 ± 2.87; in series [5] (setting [20]), 15 ± 3.06; in [5] (setting [21]) it was 18 ± 2.98; in series [5] (setting [22]) it was 17 ± 3.68. Further, the “Helsinki Chronic Pain Index questionnaire” value in series [5] (setting [23]) is recorded as 18 ± 3.03; in series [5] (setting [24]), 18 ± 2.8; in [5] (setting [25]), 16 ± 2.42. Moreover, the half-life in [6] (20 mg/kg IV) was 8.5 h; in series [6] (20 mg/kg p.o.), 7.7 h; in series [8], 3.4 h; in series [9], 3.4 h. Also, the “Subjective Clinical Evaluation System, global observations” value in series [7] (setting [17]) is listed as 9 ± 0.86; in [7] (setting [21]) it was 4 ± 1.02; in [7] (setting [25]), 6 ± 0.73. Besides, the “Result for the pain treatment (different pain assessment questionnaires)” value in series [7] was “significantly favorable”. Besides, in series [1] (10 mg/kg oral, month 3 of treatment, best result of the doses evaluated), the Reduction of seizures result is “significant reduction of seizures”. Further, the “Seizure number per month prior to the study” value is 11 and 4 and 5 (2×) and 8 and 10 and 6 and 1 and 3 and 9 in series [1] (setting [26]); 8 (3×) and 2 (2×) and 12 and 6 and 4 (2×) and 3 in series [1] (setting [27]). For the same compound, the “Changes in the type of seizure” value in series [1] (setting [26]) was “NONE (6×) and PARTIAL CONVULSIONS (4×)”; in series [1] (setting [27]) it was “PARTIAL CONVULSIONS (3×) and NONE (4×) and CLONIC TONIC (3×)”. Moreover, the “Clinical adverse effects observed” value in series [1] (setting [26]) is “NONE (9×) and LIGHT SEDATION”; in series [1] (setting [27]), “LIGHT SEDATION (3×) and NONE (6×) and SOMNOLENCE”. Besides, the “Seizure number per month after the study” value in [1] (setting [26]) was 0 (7×) and RESCUED (2×) and 1; in series [1] (setting [27]) it was 2 (2×) and 0 (4×) and 1 (2×) and RESCUED and 3.
In the case of `CCCCC1C(=O)N(c2ccccc2)N(c2ccccc2)C1=O` [phenylbutazone], the “adverse effects of claudication treatment” value in series [10] is “gastric ulcers and necrotizing colitis with protein loss”.
Turning to `CNCCC(Oc1ccc(C(F)(F)F)cc1)c1ccccc1` (centres unmarked) [Fluoxetine], the “Liverpool Osteoarthritis” value in [3] (setting [28]) is 26 ± 2.2; in series [3] (setting [29]), 23.5 ± 5.4; in series [3] (setting [30]), 26 ± 5.19; in series [3] (setting [31]) it was 22.5 ± 4.52; in series [3] (setting [32]), 22.5 ± 4.38; in series [3] (setting [33]) it was 23 ± 2.95. In addition, the “Liverpool Osteoarthritis” value in series [3] (setting [34]) is given as 23 ± 2.56; in series [3] (setting [35]), 22.5 ± 1.95; in [3] (setting [36]), 20.5 ± 1.35. Also, the “Helsinki Chronic Pain Index questionnaire” value in [5] (setting [28]) came out at 21.5 ± 2.43; in series [5] (setting [29]), 20.5 ± 3.66; in series [5] (setting [30]) it was 20 ± 3.1; in [5] (setting [31]), 15.5 ± 3.1; in series [5] (setting [32]), 15.5 ± 2.56; in series [5] (setting [33]) it was 15 ± 1.54. In addition, the “Helsinki Chronic Pain Index questionnaire” value in series [5] (setting [34]) worked out at 14 ± 2.35; in series [5] (setting [35]) it was 13.5 ± 1.55; in [5] (setting [36]) it was 13.5 ± 1.41. Further, the “Subjective Clinical Evaluation System, global observations” value is on record as 8.5 ± 0.51 in series [7] (setting [28]), 8.5 ± 1.19 in series [7] (setting [32]) and 8 ± 1.79 in series [7] (setting [36]). The “Result for the pain treatment (different pain assessment questionnaires)” value in series [7] was “significantly favorable”.
Turning to `CC(=O)Nc1ccc(O)cc1` [paracetamol], the results for the toxic dose in series [11] and in series [12] were 150 mg/kg and 50 mg/kg, respectively.
Take `CN1CC[C@]23c4c5ccc(O)c4O[C@H]2[C@@H](O)C=C[C@H]3[C@H]1C5` [morphine]: the antihyperalgesic effect in series [4] (morphine 3.2 mg/Kg subcutaneously) is given as 51.7%.
In the case of `CC(=O)Oc1ccccc1C(=O)O` [acetylsalicylic acid], the “dose at which vomiting and gastric ulcers have been described” value was “greater than 50 mg/kg/24 h” in series [13] (intake for 1 week) and over 100 mg/kg/24 h in [13] (intake for 4 weeks). Also, in [14], the “bound to plasma proteins” value is recorded as 90%. Besides, the toxic dose in [15] is reported as 80-120 mg/Kg/24 h.
